Data on ten compounds can be found in paper PMC9304929, “The Cholesterol-Binding Sequence in Monomeric C-Reactive Protein Binds to the SARS-CoV-2 Spike Receptor-Binding Domain and Blocks Interaction With Angiotensin-Converting Enzyme 2” (Frontiers in Immunology, 2022).

Data set [1] relates to SARS-CoV-2 spike RBD. The data set can be described thus: Spike RBD-mCRP binding ELISA. The conditions noted are these: for Kd: ELISA, spike RBD-immobilized microtiter wells, detection with mCRP-specific mAb 3H12, n = 3, mean ± S.E.M. As to the method: The interactions of the spike-RBD with mCRP or CRP were also examined by enzyme-linked immunosorbent assay (ELISA) using mCRP/CRP-specific mAbs. Briefly, 100 μL of spike-RBD (1μg/mL) in Tris-buffered saline (TBS; 10 mM Tris, 140 mM NaCl, pH 7.4) was added per well to coat in 96-well microplates overnight at 4°C. The wells were then washed three times with TBS containing 0.02% Tween-20 for 5 min and blocked with 1% bovine serum albumin (BSA) in TBS for 1 h at 37°C. Next, mCRP was added and the plates were incubated for 1 h at 37°C. The color was developed by adding tetramethyl benzidine (TMB) to the wells and the color development was stopped with 1 M H2SO4.

In data set [2] the test system is binding of mCRP to the spike RBD. The data set can be described thus: Peptide competition assay (ELISA) of mCRP binding to spike RBD. Further details: species or system SARS-CoV-2. The conditions noted are these: spike RBD-coated wells (2 μg/mL), mCRP at half-saturation concentration with synthetic peptide, mAb 3H12, n = 3. In general terms: An ELISA detects its analyte on a solid surface through an enzyme-linked reagent.

Data set [3] concerns spike RBD binding to cell surface ACE2 (A549 ACE2+/+ cells). The data set can be described thus: Inhibition assay of spike-ACE2 interaction in cells (flow cytometry). The data set is classed as cell-based, human. The settings on record: spike RBD 140 nM with ACE2+/+ cells, compound 4°C 30 min, n = 3. On the technique in general: Flow cytometry measures light scatter and fluorescence of single cells or particles in a stream.

In data set [4] the test system is SARS-CoV-2 spike RBD. In words: Surface plasmon resonance (SPR) binding assay, spike RBD on CM5 chip. On the procedure: (§1) Surface plasmon resonance (SPR) binding assays were performed using Biacore 8K instrument (Cytiva Life Sciences, Marlborough, MA, USA) in HEPES buffer containing 50 mM HEPES (pH 7.4), 150 mM NaCl, and 0.05% Tween-20 at 25°C. Spike-RBD was diluted to a concentration of 20 μg/mL with 10 mM sodium acetate (pH 5.0) and immobilized on a CM5 sensor chip (Cytiva Life Sciences, Marlborough, MA, USA). The mCRP samples were passed over the sensor chip at a flow rate of 30 μL/min with a concentration gradient from 3.125 nM to 100 nM. The association time was 180 s. A dissociation process was performed for 200 s at a flow rate of 30 μL/min. The dissociation constant (Kd) values were calculated by fitting result curves (subtracted from the control flow value) to a 1:1 Langmuir binding model with Biacore 8K evaluation software.
On the technique in general: In SPR one partner is held on a chip, and binding of the other changes the refractive index at the surface.

Data set [5] has as its system binding of the spike RBD to mCRP. Further details: species or system SARS-CoV-2.
Data set [6] has as its system immortalized bone marrow-derived macrophages (iBMDM). In words: Cytokine release from macrophages stimulated with CBS. Format: cell-based. The conditions noted are these: iBMDM stimulated with different concentrations of CBS, LPS positive control, n = 3. As to the method: To compare the inhibitory ability of the CBS peptide, different concentrations of the CBS peptide were added to the cell medium and incubated at 4°C for 30 min. After washing, the mixture was incubated for another 30 min with anti-Flag antibody, followed by incubation with a secondary antibody conjugated to Alexa Fluor 488. The inhibitory activity of the CBS peptide and positive control (lomefloxacin) was compared using flow cytometry with Alexa Fluor 488-conjugated spike RBD and phycoerythrin (PE)-conjugated ACE2. […] At the same time, we stimulated macrophages with the CBS peptide and detected the release of pro-inflammatory cytokines TNF-α and IL-6 to verify whether the CBS peptide itself is immunogenic.

Another data set relates to SARS-CoV-2 pseudovirus. The conditions noted are these: 50 μM, preliminary results, data not shown.
The subject of data set [7] is binding of the spike RBD to ACE2. In words: SPR competition of spike RBD binding to ACE2. Further details: species or system human. The settings on record: fixed spike RBD concentration, different concentrations of mCRP. On the procedure: as §1
Having confirmed that mCRP can bind to the spike RBD, we further questioned whether mCRP can compete for the binding of the spike RBD to ACE2. […] First, in the spike RBD binding assay with ACE2, the spike RBD concentration was fixed and different concentrations of mCRP were added to test whether mCRP could inhibit the binding of the spike RBD to ACE2.

The conditions of data set [8]: cited from earlier work.

Consider pCRP, for which the “binding to the spike RBD (ELISA)” value in the data set with SARS-CoV-2 spike RBD [1] (spike RBD-immobilized wells, detection with pCRP-specific mAb 8D8, n = 3) is “did not bind”. For amino acids 35−42 (VCLHFYTE), the “inhibition of the binding of mCRP to the spike RBD (peptide competition assay)” value (“inhibition of the binding of mCRP” for short) in data set [2] was “still inhibited”. In the case of `CCn1cc(C(=O)O)c(=O)c2cc(F)c(N3CCNC(C)C3)c(F)c21` (stereo not shown) [lomefloxacin, Lomefloxacin, reference compound], the “inhibition of the binding of the spike RBD to the cell surface ACE2” value in [3] is given as “almost completely inhibited”.

Take ACE2: the “binding of spike RBD to ACE2 (SPR)” value with SARS-CoV-2 spike RBD [4] (check of biological activity of the spike RBD protein) is given as “high affinity”. On to “amino acids 41−47 (TELSSTR; UniProt P02741 59-65, looked up, fragment)”, for which the “inhibition of the binding of mCRP” value in data set [2] is “lost the ability to inhibit”. The Kd is the equilibrium constant for the complex coming apart. On SARS-CoV-2 spike RBD [1], u-mCRP returned a dissociation constant Kd of 44.9 ± 6.27 nM. Regarding amino acids 39−47 (FYTELSSTR), the “inhibition of the binding of mCRP” value in [2] is given as “lost the ability to inhibit”. CBS (VCLHFYTELSSTR): the “inhibition of the binding of mCRP” value in [2] was “competitively inhibited”. In addition, the “inhibition of the binding of the spike RBD to mCRP (SPR)” value in [5] is listed as “almost completely inhibited”. Also, the “inhibition of the binding of the spike RBD to the cell surface ACE2” value in data set [3] is listed as “inhibit the binding of the spike RBD to the cell surface ACE2 in a concentration-dependent manner”. Further, the “release of pro-inflammatory cytokines TNF-α and IL-6” value in data set [6] is listed as “did not induce the release of cytokines”. Besides, in the data set with SARS-CoV-2 pseudovirus, the “inhibition of the invasion of SARS-CoV-2 pseudovirus into Caco-2 cells” value is listed as “partially inhibit”. In the case of mCRP, the “binding to the spike RBD (SPR)” value in the data set with SARS-CoV-2 spike RBD [4] (analyte 3.125-100 nM in fluid phase, spike RBD on CM5 chip, HEPES pH 7.4, 25°C) is given as “high affinity”. The “inhibition of the binding of the spike RBD to ACE2 (SPR)” value in data set [7] is given as “significantly inhibited”. In addition, the “half-life of blood-borne mCRP” value in data set [8] is “rather short”. Compound r-mCRP had a Kd on SARS-CoV-2 spike RBD [1] of 24.4 ± 6.48 nM.
